Experimental data as given in patent US8652999B1, “Herbicidal compositions comprising 4-amino-3-chloro-5-fluoro-6-(4-chloro-2-fluoro-3-methoxyphenyl)pyridine-2-carboxylic acid or a derivative thereof and a sulfonylaminocarbonyltriazolinone” (Dow AgroSciences, LLC., priority 2012, dated 2014).

Legend:
Format in all cases: in vivo
Conditions in all cases: foliar, 20-22 days
[1] = system: Chenopodium album (CHEAL); experiment: Postemergence herbicidal activity, greenhouse, CHEAL
Procedure: (§1) Evaluation of Postemergence Herbicidal Activity of Mixtures in Cereal Crops
(§2) Seeds of the desired test plant species were planted in Sun Gro MetroMix® 306 planting mixture, which typically has a pH of 6.0 to 6.8 and an organic matter content of about 30 percent, in plastic pots with a surface area of 103.2 square centimeters (cm^2). […] The plants were grown for 7-36 days in a greenhouse with an approximate 14 hour photoperiod which was maintained at about 18° C. during the day and 17° C. during the night. Nutrients and water were added on a regular basis and supplemental lighting was provided with overhead metal halide 1000-Watt lamps as necessary. The plants were employed for testing when they reached the second or third true leaf stage.
(§3) Treatments consisted of the benzyl ester of the compound of formula (I) (Compound A as listed in Tables 1-8) and a second cereal herbicide alone and in combination. […]
(§4) The treated plants and control plants were placed in a greenhouse as described above and watered by sub-irrigation to prevent wash-off of the test compounds. After 20-22 days, the condition of the test plants as compared with that of the control plants was determined visually and scored on a scale of 0 to 100 percent where 0 corresponds to no injury and 100 corresponds to complete kill. […]

Papaver rhoeas (PAPRH) = experiment: Postemergence herbicidal activity, greenhouse, PAPRH
Procedure: as §1, §2
(§5) Treatments consisted of the benzyl ester of the compound of formula (I) (Compound A as listed in Tables 1-8) and a second cereal herbicide alone and in combination. […] The concentrated stock solutions were diluted to 1.5 mg ai/mL with the addition of 2 volumes of an aqueous mixture containing acetone, water, isopropyl alcohol, DMSO, Agri-dex crop oil concentrate, and Triton® X-77 surfactant in a 64.7:26.0:6.7:2.0:0.7:0.01 v/v ratio. A dilution solution was prepared by mixing 1 volume of 97:3 v/v acetone/DMSO and 2 volumes of an aqueous mixture containing acetone, water, isopropyl alcohol, DMSO, Agri-dex crop oil concentrate, and Triton® X-77 surfactant in a 64.7:26.0:6.7:2.0:0.7:0.01 v/v ratio. Compound requirements are based upon a 12 mL application volume at a rate of 187 liters per hectare (L/ha). […] Formulated compounds were applied to the plant material with an overhead Mandel track sprayer equipped with 8002E nozzles calibrated to deliver 187 L/ha over an application area of 0.503 square meters (m^2) at a spray height of 18 inches (43 cm) above average plant canopy. Control plants were sprayed in the same manner with the solvent blank.
(§6) The treated plants and control plants were placed in a greenhouse as described above and watered by sub-irrigation to prevent wash-off of the test compounds. After 20-22 days, the condition of the test plants as compared with that of the control plants was determined visually and scored on a scale of 0 to 100 percent where 0 corresponds to no injury and 100 corresponds to complete kill.
(§7) Colby's equation was used to determine the herbicidal effects expected from the mixtures (Colby, S. R. 1967. Calculation of the synergistic and antagonistic response of herbicide combinations. Weeds 15:20-22.). Specifically, the following equation was used to calculate the expected activity of mixtures containing two active ingredients, A and B: Expected=A+B−(A×B/100) • A=observed efficacy of active ingredient A at the same concentration as used in the mixture. • B=observed efficacy of active ingredient B at the same concentration as used in the mixture.

Veronica persica (VERPE) = experiment: Postemergence herbicidal activity, greenhouse, VERPE
Procedure: as §1, §2, §5, §6, §7

Lamium purpureum (LAMPU) = experiment: Postemergence herbicidal activity, greenhouse, LAMPU
Procedure: as §1, §2, §5, §6
(§8) Colby's equation was used to determine the herbicidal effects expected from the mixtures (Colby, S. R. 1967. Calculation of the synergistic and antagonistic response of herbicide combinations. Weeds 15:20-22.). […]

[2] = system: Triticum aestivum (TRZAW); experiment: Postemergence herbicidal activity, greenhouse, TRZAW
Procedure: as §1, §2, §5, §6, §7

[3] = system: Lolium multiflorum subsp. gaudini (LOLMG); experiment: Postemergence herbicidal activity, greenhouse, LOLMG
Procedure: as §1, §2, §5, §6, §7

[4] = system: Triticum aestivum (TRZAS); experiment: Postemergence herbicidal activity, greenhouse, TRZAS
Procedure: as §1, §2, §3, §4

Salsola tragus (SASKR) = experiment: Postemergence herbicidal activity, greenhouse, SASKR
Procedure: as §1, §2, §5, §6, §7

Galium aparine (GALAP) = experiment: Postemergence herbicidal activity, greenhouse, GALAP
Procedure: as §1, §2, §3, §4

Setaria viridis (SETVI) = experiment: Postemergence herbicidal activity, greenhouse, SETVI
Procedure: as §1, §2, §5, §6, §8

Cirsium arvense (CIRAR) = experiment: Postemergence herbicidal activity, greenhouse, CIRAR
Procedure: as §1, §2, §5, §6, §7

[5] = system: Alopecurus myosuroides (ALOMY); experiment: Postemergence herbicidal activity, greenhouse, ALOMY
Procedure: as §1, §2, §5, §6, §7

[6] = system: Matricaria chamomila (MATCH); experiment: Postemergence herbicidal activity, greenhouse, MATCH
Procedure: as §1, §2, §5, §6, §7

[7] = system: Apera spica-venti (APESV); experiment: Postemergence herbicidal activity, greenhouse, APESV
Procedure: as §1, §2, §5, §6, §7

Hordeum vulgare (HORVS) = experiment: Postemergence herbicidal activity, greenhouse, HORVS
Procedure: as §1, §2, §3, §4

Stellaria media (STEME) = experiment: Postemergence herbicidal activity, greenhouse, STEME
Procedure: as §1, §2, §5, §6, §7

Kochia scoparia (KCHSC) = experiment: Postemergence herbicidal activity, greenhouse, KCHSC
Procedure: as §1, §2, §5, §6, §7

Viola tricolor (VIOTR) = experiment: Postemergence herbicidal activity, greenhouse, VIOTR
Procedure: as §1, §2, §5, §6, §7

COc1c(Cl)ccc(-c2nc(C(=O)OCc3ccccc3)c(Cl)c(N)c2F)c1F [Compound A, benzyl ester of 4-amino-3-chloro-5-fluoro-6-(4-chloro-2-fluoro-3-methoxyphenyl)pyridine-2-carboxylic acid]
CHEAL Obs ([1]; Compound A 2.5 g ha): 50%
CHEAL Obs ([1]; Compound A 5 g ha): 60%
PAPRH Obs (Papaver rhoeas (PAPRH); Compound A 5 g ai/ha): 46%
PAPRH Obs (Papaver rhoeas (PAPRH); Compound A 10 g ai/ha): 48%
VERPE Obs (Veronica persica (VERPE); Compound A 5 g ai/ha): 13%
VERPE Obs (Veronica persica (VERPE); Compound A 8.75 g/ha): 50%
VERPE Obs (Veronica persica (VERPE); Compound A 10 g ai/ha): 25%
LAMPU Obs (Lamium purpureum (LAMPU); Compound A 2.5 g ha): 80%
LAMPU Obs (Lamium purpureum (LAMPU); Compound A 5 g ha): 80%
LAMPU Obs (Lamium purpureum (LAMPU); Compound A 8.75 g/ha): 83%
TRZAW Obs ([2]; Compound A 5 g ai/ha): 7%
TRZAW Obs ([2]; Compound A 10 g ai/ha): 7%
LOLMG Obs ([3]; Compound A 5 g ha): 0%
LOLMG Obs ([3]; Compound A 5 g/ha): 0%
LOLMG Obs ([3]; Compound A 10 g ha): 0%
LOLMG Obs ([3]; Compound A 10 g/ha): 0%
TRZAS Obs ([4]; Compound A 2.5 g ha): 0%
TRZAS Obs ([4]; Compound A 5 g ha): 5%
SASKR Obs (Salsola tragus (SASKR); Compound A 2.5 g ha): 10%
SASKR Obs (Salsola tragus (SASKR); Compound A 5 g ai/ha): 75%
SASKR Obs (Salsola tragus (SASKR); Compound A 5 g ha): 60%
SASKR Obs (Salsola tragus (SASKR); Compound A 10 g ai/ha): 78%
GALAP Obs (Galium aparine (GALAP); Compound A 2.5 g ha): 60%
GALAP Obs (Galium aparine (GALAP); Compound A 5 g ha): 60%
SETVI Obs (Setaria viridis (SETVI); Compound A 5 g ha): 0%
SETVI Obs (Setaria viridis (SETVI); Compound A 10 g ha): 0%
CIRAR Obs (Cirsium arvense (CIRAR); Compound A 2.5 g ha): 10%
CIRAR Obs (Cirsium arvense (CIRAR); Compound A 5 g ha): 20%
CIRAR Obs (Cirsium arvense (CIRAR); Compound A 8.75 g/ha): 40%
ALOMY Obs ([5]; Compound A 5 g ha): 0%
ALOMY Obs ([5]; Compound A 5 g/ha): 0%
ALOMY Obs ([5]; Compound A 10 g ha): 0%
ALOMY Obs ([5]; Compound A 10 g/ha): 0%
MATCH Obs ([6]; Compound A 2.5 g ha): 0%
MATCH Obs ([6]; Compound A 5 g ai/ha): 20%
MATCH Obs ([6]; Compound A 5 g ha): 10%
MATCH Obs ([6]; Compound A 8.75 g/ha): 20%
MATCH Obs ([6]; Compound A 10 g ai/ha): 40%
APESV Obs ([7]; Compound A 5 g ha): 0%
APESV Obs ([7]; Compound A 5 g/ha): 0%
APESV Obs ([7]; Compound A 10 g ha): 0%
APESV Obs ([7]; Compound A 10 g/ha): 0%
HORVS Obs (Hordeum vulgare (HORVS); Compound A 2.5 g ha): 0%
HORVS Obs (Hordeum vulgare (HORVS); Compound A 5 g ha): 0%
STEME Obs (Stellaria media (STEME); Compound A 5 g ai/ha): 50%
STEME Obs (Stellaria media (STEME); Compound A 8.75 g/ha): 68%
STEME Obs (Stellaria media (STEME); Compound A 10 g ai/ha): 63%
KCHSC Obs (Kochia scoparia (KCHSC); Compound A 2.5 g ha): 20%
KCHSC Obs (Kochia scoparia (KCHSC); Compound A 5 g ai/ha): 60%
KCHSC Obs (Kochia scoparia (KCHSC); Compound A 5 g ha): 40%
KCHSC Obs (Kochia scoparia (KCHSC); Compound A 10 g ai/ha): 57%
VIOTR Obs (Viola tricolor (VIOTR); Compound A 2.5 g ha): 10%
VIOTR Obs (Viola tricolor (VIOTR); Compound A 5 g ai/ha): 27%
VIOTR Obs (Viola tricolor (VIOTR); Compound A 5 g ha): 10%
VIOTR Obs (Viola tricolor (VIOTR); Compound A 10 g ai/ha): 37%
